Test results reported in ChEMBL document CHEMBL1201861, “Genomics of Drug Sensitity in Cancer screening data, Wellcome Trust Sanger Institute”.
pIC50: −log10 of the molar value.

What was measured:
[1] = system: HSC-4; assay: cells; type: functional, cell-based; conditions: Homo sapiens;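 further: growth inhibition of human HSC-4 cells, read out with a cell viability assay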
Description: SANGER: Inhibition of human HSC-4 cell growth in a cell viability assay.

[2] = system: UACC-62; assay: cells; type: functional, cell-based; conditions: Homo sapiens;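 further: growth inhibition of human UACC-62 cells, read out by a cell viability assay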
Description: SANGER: Inhibition of human UACC-62 cell growth in a cell viability assay.

[3] = system: Daudi; assay: cells; type: functional, cell-based, Homo sapiens; conditions: Homo sapiens, Daudi;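 further: growth inhibition of Daudi cells, read out by a viability assay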
Description: SANGER: Inhibition of human Daudi cell growth in a cell viability assay.

[4] = system: SCLC-21H; assay: cells; type: functional, cell-based, Homo sapiens; conditions: Homo sapiens, SCLC-21H;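 further: growth inhibition of cultured human SCLC-21H cells, read out with a cell viability assay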
Description: SANGER: Inhibition of human SCLC-21H cell growth in a cell viability assay.

[5] = system: BFTC-909; assay: cells; type: functional, cell-based; conditions: Homo sapiens
Description: SANGER: Inhibition of human BFTC-909 cell growth in a cell viability assay.

[6] = system: CP66-MEL; assay: cells; type: functional, cell-based; conditions: Homo sapiens;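 further: growth inhibition of CP66-MEL cells determined in a cell viability assay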
Description: SANGER: Inhibition of human CP66-MEL cell growth in a cell viability assay.

[7] = system: C-33-A; assay: cells; type: functional, cell-based; conditions: Homo sapiens;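 further: cell viability assay measuring growth inhibition of C-33-A cells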
Description: SANGER: Inhibition of human C-33-A cell growth in a cell viability assay.

[8] = system: SCC-9; assay: cells; type: functional, cell-based; conditions: Homo sapiens;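 further: Read-out is a cell viability assay, with values giving inhibition of cell growth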
Description: SANGER: Inhibition of human SCC-9 cell growth in a cell viability assay.

[9] = system: HEC-1; assay: cells; type: functional, cell-based; conditions: Homo sapiens;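 further: growth inhibition of the cell line, read out with a cell viability assay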
Description: SANGER: Inhibition of human HEC-1 cell growth in a cell viability assay.

[10] = system: HCT-15; assay: cells; type: functional, cell-based; conditions: Homo sapiens;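 further: cell viability readout, IC50 reflecting suppression of HCT-15 cell growth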
Description: SANGER: Inhibition of human HCT-15 cell growth in a cell viability assay.

[11] = system: SAS; assay: cells; type: functional, cell-based; conditions: Homo sapiens;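 further: growth inhibition of SAS cells, read out with a cell viability assay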
Description: SANGER: Inhibition of human SAS cell growth in a cell viability assay.

[12] = system: DK-MG; assay: cells; type: functional, cell-based; conditions: Homo sapiens;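 further: growth inhibition of DK-MG cells, read out with a cell viability assay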
Description: SANGER: Inhibition of human DK-MG cell growth in a cell viability assay.

[13] = system: YKG-1; assay: cells; type: functional, cell-based; conditions: Homo sapiens;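 further: cell growth inhibition, read out with a viability assay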
Description: SANGER: Inhibition of human YKG-1 cell growth in a cell viability assay.

[14] = system: PA-1; assay: cells; type: functional, cell-based; conditions: Homo sapiens;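 further: IC50 for suppression of PA-1 cell proliferation, determined with a cell viability read-out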
Description: SANGER: Inhibition of human PA-1 cell growth in a cell viability assay.

[15] = system: HCC1419; assay: cells; type: functional, cell-based; conditions: Homo sapiens;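 further: growth inhibition of human HCC1419 cells, read out as cell viability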
Description: SANGER: Inhibition of human HCC1419 cell growth in a cell viability assay.

[16] = system: HCC1569; assay: cells; type: functional, cell-based; conditions: Homo sapiens;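 further: growth inhibition of human HCC1569 cells, read out with a cell viability assay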
Description: SANGER: Inhibition of human HCC1569 cell growth in a cell viability assay.

[17] = system: Raji; assay: cells; type: functional, cell-based, Homo sapiens; conditions: Homo sapiens, Raji;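 further: cell viability assay measuring inhibition of Raji cell growth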
Description: SANGER: Inhibition of human Raji cell growth in a cell viability assay.

[18] = system: KYSE-70 cell line; assay: cells; type: functional, cell-based; conditions: Homo sapiens;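 further: cell viability assay read-out, with IC50 expressing suppression of KYSE-70 cell growth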
Description: SANGER: Inhibition of human KYSE-70 cell growth in a cell viability assay.

[19] = system: BC-3; assay: cells; type: functional, cell-based, Homo sapiens; conditions: Homo sapiens, BC-3;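 further: cell viability assay measuring growth inhibition of human BC-3 cells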
Description: SANGER: Inhibition of human BC-3 cell growth in a cell viability assay.

[20] = system: GAMG; assay: cells; type: functional, cell-based; conditions: Homo sapiens;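 further: cell growth inhibition measured by a viability assay in the GAMG human cell line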
Description: SANGER: Inhibition of human GAMG cell growth in a cell viability assay.

[21] = system: HCC38; assay: cells; type: functional, cell-based; conditions: Homo sapiens;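 further: cell viability assay on the human HCC38 cell line, with IC50 marking the concentration that inhibits cell growth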
Description: SANGER: Inhibition of human HCC38 cell growth in a cell viability assay.

[22] = system: NCI-H322M; assay: cells; type: functional, cell-based, Homo sapiens; conditions: Homo sapiens, NCI-H322M;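 further: cell viability assay measuring inhibition of growth of human NCI-H322M cells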
Description: SANGER: Inhibition of human NCI-H322M cell growth in a cell viability assay.

[23] = system: LP-1; assay: cells; type: functional, cell-based, Homo sapiens; conditions: Homo sapiens, LP-1;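 further: growth inhibition of human LP-1 cells, with the read-out taken from a cell viability assay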
Description: SANGER: Inhibition of human LP-1 cell growth in a cell viability assay.

[24] = system: MONO-MAC-6; assay: cells; type: functional, cell-based, Homo sapiens; conditions: Homo sapiens, MONO-MAC-6;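 further: cell viability assay measuring growth inhibition of human MONO-MAC-6 cells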
Description: SANGER: Inhibition of human MONO-MAC-6 cell growth in a cell viability assay.

[25] = system: CHL-1; assay: cells; type: functional, cell-based; conditions: Homo sapiens;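 further: cell growth inhibition, read out with a cell viability assay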
Description: SANGER: Inhibition of human CHL-1 cell growth in a cell viability assay.

[26] = system: NCI-H1792; assay: cells; type: functional, cell-based; conditions: Homo sapiens;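 further: growth inhibition of human NCI-H1792 cells, read out as cell viability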
Description: SANGER: Inhibition of human NCI-H1792 cell growth in a cell viability assay.

[27] = system: NCI-H596; assay: cells; type: functional, cell-based; conditions: Homo sapiens;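 further: growth inhibition of NCI-H596 cells, read out with a cell viability assay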
Description: SANGER: Inhibition of human NCI-H596 cell growth in a cell viability assay.

[28] = system: MDA-MB-361; assay: cells; type: functional, cell-based; conditions: Homo sapiens
[29] = system: MDA-MB-231; assay: cells; type: functional, cell-based; conditions: Homo sapiens
Description: SANGER: Inhibition of human MDA-MB-231 cell growth in a cell viability assay.

[30] = system: Huh-7; assay: cells; type: functional, cell-based; conditions: Homo sapiens;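 further: HuH-7 cell growth inhibition, read out with a cell viability assay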
Description: SANGER: Inhibition of human HuH-7 cell growth in a cell viability assay.

[31] = system: NALM-6; assay: cells; type: functional, cell-based, Homo sapiens; conditions: Homo sapiens, NALM-6;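 further: growth inhibition of NALM-6 cells, read out with a cell viability assay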
Description: SANGER: Inhibition of human NALM-6 cell growth in a cell viability assay.

[32] = system: K052; assay: cells; type: functional, cell-based, Homo sapiens; conditions: Homo sapiens, K052;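 further: Read-out from a cell viability assay, IC50 reflecting suppression of K052 cell growth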
Description: SANGER: Inhibition of human K052 cell growth in a cell viability assay.

[33] = system: OVCAR-5; assay: cells; type: functional, cell-based; conditions: Homo sapiens;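 further: growth inhibition of human OVCAR-5 cells, read out with a cell viability assay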
Description: SANGER: Inhibition of human OVCAR-5 cell growth in a cell viability assay.

[34] = system: CHP-212; assay: cells; type: functional, cell-based; conditions: Homo sapiens
Description: SANGER: Inhibition of human CHP-212 cell growth in a cell viability assay.

[35] = system: NCI-H1573; assay: cells; type: functional, cell-based; conditions: Homo sapiens;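 further: growth inhibition of NCI-H1573 cells, read out with a cell viability assay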
Description: SANGER: Inhibition of human NCI-H1573 cell growth in a cell viability assay.

[36] = system: EW-24; assay: cells; type: functional, cell-based, Homo sapiens; conditions: Homo sapiens, EW-24;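 further: human EW-24 cancer cell line, growth inhibition read out via a cell viability assay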
Description: SANGER: Inhibition of human EW-24 cell growth in a cell viability assay.

[37] = system: SF-295; assay: cells; type: functional, cell-based; conditions: Homo sapiens;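 further: growth inhibition of SF-295 cells, read out with a cell viability assay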
Description: SANGER: Inhibition of human SF295 cell growth in a cell viability assay.

[38] = system: PFSK-1; assay: cells; type: functional, cell-based; conditions: Homo sapiens;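 further: cell viability assay measuring how strongly compounds suppress growth of human PFSK-1 cells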
Description: SANGER: Inhibition of human PFSK-1 cell growth in a cell viability assay.

[39] = system: PANC-08-13; assay: cells; type: functional, cell-based; conditions: Homo sapiens
Description: SANGER: Inhibition of human PANC-08-13 cell growth in a cell viability assay.

[40] = system: SCC-25; assay: cells; type: functional, cell-based; conditions: Homo sapiens;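 further: growth inhibition of SCC-25 cells, measured with a cell viability assay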
Description: SANGER: Inhibition of human SCC-25 cell growth in a cell viability assay.

[41] = system: HT-1376; assay: cells; type: functional, cell-based; conditions: Homo sapiens
Description: SANGER: Inhibition of human HT-1376 cell growth in a cell viability assay.

[42] = system: FaDu; assay: cells; type: functional, cell-based; conditions: Homo sapiens;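 further: cell viability readout of growth inhibition in FaDu cells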
Description: SANGER: Inhibition of human FADU cell growth in a cell viability assay.

[43] = system: RPMI-7951; assay: cells; type: functional, cell-based; conditions: Homo sapiens
Description: SANGER: Inhibition of human RPMI-7951 cell growth in a cell viability assay.

[44] = system: IGROV-1; assay: cells; type: functional, cell-based; conditions: Homo sapiens;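 further: reduction of IGROV-1 cell growth, read out with a viability assay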
Description: SANGER: Inhibition of human IGROV-1 cell growth in a cell viability assay.

[45] = system: S-117; assay: cells; type: functional, cell-based; conditions: Homo sapiens
Description: SANGER: Inhibition of human S-117 cell growth in a cell viability assay.

[46] = system: KYSE-520 cell line; assay: cells; type: functional, cell-based; conditions: Homo sapiens;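 further: growth inhibition of human KYSE-520 cells, read out with a viability assay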
Description: SANGER: Inhibition of human KYSE-520 cell growth in a cell viability assay.

[47] = system: SNU-C1; assay: cells; type: functional, cell-based, Homo sapiens; conditions: Homo sapiens, SNU-C1;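 further: growth inhibition of SNU-C1 human cells, read out by a cell viability assay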
Description: SANGER: Inhibition of human SNU-C1 cell growth in a cell viability assay.

[48] = system: SJRH30; assay: cells; type: functional, cell-based; conditions: Homo sapiens;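 further: growth inhibition of human SJRH30 cells, read out with a cell viability assay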
Description: SANGER: Inhibition of human SJRH30 cell growth in a cell viability assay.

[49] = system: SK-MEL-24; assay: cells; type: functional, cell-based; conditions: Homo sapiens;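 further: growth inhibition read out by a cell viability assay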
Description: SANGER: Inhibition of human SK-MEL-24 cell growth in a cell viability assay.

[50] = system: CAL-120; assay: cells; type: functional, cell-based; conditions: Homo sapiens;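 further: cell growth inhibition, read out as cell viability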
Description: SANGER: Inhibition of human CAL-120 cell growth in a cell viability assay.

[51] = system: SAOS-2; assay: cells; type: functional, cell-based; conditions: Homo sapiens;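 further: growth inhibition of human Saos-2 cells determined by a cell viability assay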
Description: SANGER: Inhibition of human Saos-2 cell growth in a cell viability assay.

[52] = system: P12-Ichikawa; assay: cells; type: functional, cell-based; conditions: Homo sapiens
[53] = system: NB1; assay: cells; type: functional, cell-based, Homo sapiens; conditions: Homo sapiens, NB1;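 further: reduction of NB1 cell proliferation, read out with a viability assay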
Description: SANGER: Inhibition of human NB1 cell growth in a cell viability assay.

[54] = system: RPMI 8402; assay: SANGER: Inhibition of human RPMI-8402 cell growth in a cell viability assay.; type: functional, cell-based; conditions: Homo sapiens, RPMI 8402
[55] = system: CAKI-1; assay: cells; type: functional, cell-based; conditions: Homo sapiens;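 further: growth inhibition of CAKI-1 cells, measured by a cell viability assay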
Description: SANGER: Inhibition of human CAKI-1 cell growth in a cell viability assay.

[56] = system: BT-20; assay: cells; type: functional, cell-based; conditions: Homo sapiens;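 further: cell viability assay measuring suppression of growth in human BT-20 cells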
Description: SANGER: Inhibition of human BT-20 cell growth in a cell viability assay.

[57] = system: RD; assay: cells; type: functional, cell-based; conditions: Homo sapiens
Description: SANGER: Inhibition of human RD cell growth in a cell viability assay.

## COc1ccc(-c2cc3nccn3c(Nc3ncccc3C(N)=O)n2)cc1OC
[1]
  pIC50: < 5.10
[2]
  pIC50: < 5.10
[3]
  pIC50: 6.22
[4]
  pIC50: < 5.10
[5]
  pIC50: < 5.10
[6]
  pIC50: < 5.10
[7]
  pIC50: 5.60
[8]
  pIC50: < 5.10
[9]
  pIC50: < 5.10
[10]
  pIC50: 5.18
[11]
  pIC50: < 5.10
[12]
  pIC50: < 5.10
[13]
  pIC50: 5.58
[14]
  pIC50: 6.00
[15]
  pIC50: < 5.10
[16]
  pIC50: < 5.10
[17]
  pIC50: 5.26
[18]
  pIC50: < 5.10
[19]
  pIC50: 5.61
[20]
  pIC50: < 5.10
[21]
  pIC50: < 5.10
[22]
  pIC50: < 5.10
[23]
  pIC50: 5.40
[24]
  pIC50: 6.02
[25]
  pIC50: 5.39
[26]
  pIC50: < 5.10
[27]
  pIC50: < 5.10
[28]
  pIC50: < 5.10
[29]
  pIC50: < 5.10
[30]
  pIC50: < 5.10
[31]
  pIC50: 6.38
[32]
  pIC50: < 5.10
[33]
  pIC50: 5.13
[34]
  pIC50: 5.19
[35]
  pIC50: < 5.10
[36]
  pIC50: < 5.10
[37]
  pIC50: < 5.10
[38]
  pIC50: 5.14
[39]
  pIC50: < 5.10
[40]
  pIC50: < 5.10
[41]
  pIC50: 5.49
[42]
  pIC50: < 5.10
[43]
  pIC50: 5.46
[44]
  pIC50: 5.60
[45]
  pIC50: < 5.10
[46]
  pIC50: < 5.10
[47]
  pIC50: < 5.10
[48]
  pIC50: < 5.10
[49]
  pIC50: < 5.10
[50]
  pIC50: < 5.10
[51]
  pIC50: < 5.10
[52]
  pIC50: 5.36
[53]
  pIC50: 5.77
[54]
  pIC50: 5.75
[55]
  pIC50: 5.21
[56]
  pIC50: < 5.10
[57]
  pIC50: < 5.10

## OC[C@H](Cc1ccccc1)Nc1nc(Oc2ccc3c(c2)CCC3)nc2c1ncn2Cc1ccc(-c2ccccc2)cc1
[1]
  pIC50: < 4.99
[2]
  pIC50: < 4.99
[3]
  pIC50: < 4.99
[4]
  pIC50: < 4.99
[5]
  pIC50: < 4.99
[6]
  pIC50: < 4.99
[7]
  pIC50: < 4.99
[8]
  pIC50: < 4.99
[9]
  pIC50: < 4.99
[10]
  pIC50: 5.60
[11]
  pIC50: 5.32
[12]
  pIC50: < 4.99
[13]
  pIC50: 5.15
[14]
  pIC50: < 4.99
[15]
  pIC50: < 4.99
[16]
  pIC50: < 4.99
[17]
  pIC50: < 4.99
[18]
  pIC50: < 4.99
[19]
  pIC50: 5.18
[20]
  pIC50: < 4.99
[21]
  pIC50: < 4.99
[22]
  pIC50: < 4.99
[23]
  pIC50: < 4.99
[24]
  pIC50: < 4.99
[25]
  pIC50: < 4.99
[26]
  pIC50: < 4.99
[27]
  pIC50: < 4.99
[28]
  pIC50: < 4.99
[29]
  pIC50: < 4.99
[30]
  pIC50: < 4.99
[31]
  pIC50: 5.46
[32]
  pIC50: < 4.99
[33]
  pIC50: < 4.99
[34]
  pIC50: < 4.99
[35]
  pIC50: < 4.99
[36]
  pIC50: < 4.99
[37]
  pIC50: 5.49
[38]
  pIC50: < 4.99
[39]
  pIC50: < 4.99
[40]
  pIC50: < 4.99
[41]
  pIC50: < 4.99
[42]
  pIC50: < 4.99
[43]
  pIC50: 5.85
[44]
  pIC50: 5.07
[45]
  pIC50: 5.31
[46]
  pIC50: < 4.99
[47]
  pIC50: 5.37
[48]
  pIC50: < 4.99
[49]
  pIC50: < 4.99
[50]
  pIC50: < 4.99
[51]
  pIC50: < 4.99
[52]
  pIC50: 5.10
[53]
  pIC50: 5.03
[54]
  pIC50: < 4.99
[55]
  pIC50: < 4.99
[56]
  pIC50: < 4.99
[57]
  pIC50: < 4.99

## CCCCCCCCCCCC1=C(O)C(=O)C=C(O)C1=O [EMBELIN]
[1]
  pIC50: 4.95
[2]
  pIC50: 5.76
[3]
  pIC50: 5.24
[4]
  pIC50: < 4.49
[5]
  pIC50: < 4.49
[6]
  pIC50: 5.35
[7]
  pIC50: < 4.49
[8]
  pIC50: < 4.49
[9]
  pIC50: 4.88
[10]
  pIC50: 5.03
[11]
  pIC50: 4.77
[12]
  pIC50: < 4.49
[13]
  pIC50: 5.05
[14]
  pIC50: 5.63
[15]
  pIC50: < 4.49
[16]
  pIC50: 4.99
[17]
  pIC50: 4.98
[18]
  pIC50: 4.82
[19]
  pIC50: < 4.49
[20]
  pIC50: 5.04
[21]
  pIC50: 4.75
[22]
  pIC50: < 4.49
[23]
  pIC50: < 4.49
[24]
  pIC50: 4.66
[25]
  pIC50: 5.33
[26]
  pIC50: 4.64
[27]
  pIC50: 4.81
[28]
  pIC50: 4.71
[29]
  pIC50: 4.66
[30]
  pIC50: < 4.49
[31]
  pIC50: 5.04
[32]
  pIC50: 4.54
[33]
  pIC50: < 4.49
[34]
  pIC50: 5.51
[35]
  pIC50: 4.85
[36]
  pIC50: < 4.49
[37]
  pIC50: 5.76
[38]
  pIC50: 4.85
[39]
  pIC50: < 4.49
[40]
  pIC50: < 4.49
[41]
  pIC50: 5.23
[42]
  pIC50: 4.80
[43]
  pIC50: 4.59
[44]
  pIC50: 5.25
[45]
  pIC50: 5.44
[46]
  pIC50: 4.73
[47]
  pIC50: 4.99
[48]
  pIC50: 5.10
[49]
  pIC50: 5.33
[50]
  pIC50: 4.62
[51]
  pIC50: 5.40
[52]
  pIC50: 5.02
[53]
  pIC50: < 4.49
[54]
  pIC50: 5.39
[55]
  pIC50: < 4.49
[56]
  pIC50: 4.84
[57]
  pIC50: 4.82
